# From paper PMC7607875, “Enhancing the antibacterial activity of antimicrobial peptide PMAP-37(F34-R) by cholesterol modification” (BMC Veterinary Research, 2020)
# Marks after values point to notes of the source that are not given here. Residues, ends and D or L forms follow the SMILES beside them. No end group written: not given here. *: point of attachment. Cholesteryloxycarbonyl = CC(C)CCC[C@@H](C)[C@H]1CC[C@H]2[C@@H]3CC=C4C[C@@H](OC(=O)*)CC[C@]4(C)[C@H]3CC[C@]12C
# Legend:
# S. aureus ATCC25923 [1] = format: cell-based; conditions: ATCC25923, 12 h
# Experimental: (§1) The MIC values of Chol-37(F34-R) were determined using the microdilution method of the Clinical and Laboratory Standards Institute. Antibacterial intensity was tested in MHB against S. aureus ATCC25923, L. monocytogenes CICC21634, S. typhimurium SL1344, and P. aeruginosa GIM1.551. The tested strains were cultured for 12 h at 37 °C. Then, the bacterial inoculum concentration was adjusted to 1 × 10^6 CFU/mL. Twofold serial dilutions covering different concentrations from 0.0039 to 256 μg/mL for each peptide were added to media containing cultures of the tested strains in 96-well plates, which were incubated at 37 °C for 18 h. The MIC values were determined by evaluating the OD600nm of the cultures.
# (§2) The effects of salt ion and serum on the antibacterial activities of Chol-37(F34-R) were investigated by MIC assay. S. aureus ATCC25923 and P. aeruginosa GIM1.551 were used as the tested strains. The MIC values were determined at recommended doses of NaCl (8.766 g/L), CaCl2 (0.039 g/L), and fetal bovine serum (20%).
# (§3) The effects of salt ion and serum on antibacterial activities of PMAP-37(F34-R)-C were investigated by MIC assay. a, The control MIC values were determined in the absence of physiological salts and serum. b, c, and d, The final concentrations of NaCl, CaCl2, and serum were 8.766 g/L, 0.039 g/L, and 20% (v/v), respectively.
# P. aeruginosa GIM1.551 [2] = format: cell-based; conditions: GIM1.551, 12 h
# Experimental: as §1, §2, §3
# [3] = test system: L. monocytogenes CICC21634; experiment: MIC assay, microdilution method; format: cell-based
# Experimental: as §1
# S. aureus ATCC25923 [4] = experiment: MIC assay, microdilution method; format: cell-based
# Experimental: as §1
# P. aeruginosa GIM1.551 [5] = experiment: MIC assay, microdilution method; format: cell-based
# Experimental: as §1
# NIH 3 T3 cells = experiment: Cytotoxicity assay (MTT); conditions: 24 h, at a concentration of 1280 μg/mL, n = 5
# Experimental: NIH 3 T3 cells were seeded in a 96-well with a density of 1× 10^4 cells per well and incubated in 37 °C for 24 h. Afterward, the cell medium was replaced by fresh DMEM containing various concentrations of peptides (2.5–1280 μg/mL). After 24 h incubation, 20 μL MTT agent (5 mg/mL) was added to each well and incubated for 4 h. Then, the supernatant of each well was replaced with 150 μL DMSO. The absorbance was measured by a microplate reader (FlexStation III) at 570 nm.
# mouse erythrocytes = experiment: Hemolytic assay; conditions: at 1280 μg/mL, 1 h, OD570nm, n = 5
# Experimental: Mouse erythrocytes were diluted to a final suspension concentration of 8% (v/v). Then, 100 μL erythrocyte suspension was incubated with 100 μL peptides at different concentrations ranging from 2.5 to 1280 μg/mL. PBS and 0.2% Triton X-100 were used as negative and positive controls, respectively. After 1 h of incubation, the tested samples were centrifuged for 5 min at 1000 g. Lastly, the absorbance of the supernatant of tested samples was measured at 570 nm. The percentage of hemolytic was obtained using the following formula: Hemolysis rate = [OD570nm (peptides) − OD570nm (PBS)]/[OD570nm (Triton X − 100) − OD570nm (PBS)] × 100 % .
# P. aeruginosa GIM1.551 [6] = experiment: P. aeruginosa GIM1.551-infected mouse knife injury model; format: in vivo; conditions: topical 10 μL of 1 μg/μL once per day for 7 days, day 7
# Experimental: The P. aeruginosa strain GIM1.551 was used to build knife wound model of mouse as described elsewhere with minor modifications. A total of 30 mice were randomly divided into six groups. Briefly, the fur on the back of each mouse was removed by shaving. A 1.5 cm linear knife wound was made on the back of each mouse and infected by direct seeding with bacterial suspensions (1 × 10^8 CFU/mL, 50 μL). One day postinfection, the wounds were administered with PMAP-37 (10 μL, 1 μg/μL), PMAP-37(F34-R) (10 μL, 1 μg/μL), Chol-37(F34-R) (10 μL, 1 μg/μL), ampicillin sodium (10 μL, 1 μg/μL), or PBS (10 μL), and the treatment program was performed once per day for 7 days. The mice with no infection and treatment were used as blank control. The wounds of mice were wrapped in gauze bandages that were changed every day. Seven days after treatment, mice were euthanized with 120 mg/kg intraperitoneal (i.p.) sodium pentobarbital and their wound tissues were collected. The wound tissues were homogenized with a basic homogenizer. Following a 10-fold serial dilution in PBS, the homogenates were spread on TSB agar plates. The bacterial burden was determined after incubation at 37 °C for 18 h.
# P. aeruginosa GIM1.551 [7] = experiment: P. aeruginosa GIM1.551-infected mouse abscess model; format: in vivo; conditions: P. aeruginosa GIM1.551 model; 10 μL of 1 μg/μL once per day for 3 days, day 3; n = 5
# Source text: (§4) The abscess model of mouse was built against S. aureus ATCC25923 or P. aeruginosa GIM1.551 as previously described with minor modifications. Twelve groups of 60 mice (5 mice per group) were randomly divided into PMAP-37, PMAP-37(F34-R), Chol-37(F34-R), ampicillin sodium (against S. aureus ATCC25923-infected mouse abscess model), benzylpenicillin potassium (against P. aeruginosa GIM1.551-infected mouse abscess model), PBS, and blank groups. The fur on the back of each mouse was shaved. Bacterial suspensions (1 × 10^8 CFU/mL, 50 μL) were injected into the right side of the dorsum underneath the thin skeletal muscle. After 1 h of inoculation, the infected areas were directly injected with PMAP-37, (10 μL, 1 μg/μL), PMAP-37(F34-R) (10 μL, 1 μg/μL), Chol-37(F34-R) (10 μL, 1 μg/μL), antibiotic (ampicillin sodium 10 μL, 1 μg/μL or benzylpenicillin potassium 10 μL, 1 μg/μL), or PBS (10 μL). The treatment program was conducted once per day for 3 days. Mice in the blank group were not challenged and treated. Three days after treatment, mice were euthanized with 120 mg/kg i.p. sodium pentobarbital, and their skin abscesses were harvested and homogenized as described above to assess the bacterial burden.
# S. aureus ATCC25923 [8] = experiment: S. aureus ATCC25923-infected mouse abscess model; format: in vivo; conditions: 10 μL of 1 μg/μL once per day for 3 days, day 3, n = 5
# Source text: as §4
# S. aureus ATCC25923 [9] = experiment: S. aureus ATCC25923-infected mouse peritonitis model; format: in vivo; conditions: i.p. 20 μL of 1 μg/μL once per day for 3 days
# Experimental: The dissemination of S. aureus ATCC25923 to target organs was assessed in the peritonitis model. The assessment was performed on the basis of the method described previously with minor modifications. Six groups of 60 mice (10 mice per group) were randomly divided into PMAP-37, PMAP-37(F34-R), Chol-37(F34-R), ampicillin sodium, PBS, and blanks group. Bacterial suspension (1 × 10^8 CFU/mL, 100 μL) was intraperitoneally injected into mice. After 2 h inoculation, PMAP-37 (20 μL, 1 μg/μL), PMAP-37(F34-R) (20 μL, 1 μg/μL), Chol-37(F34-R) (20 μL, 1 μg/μL), ampicillin sodium (20 μL, 1 μg/μL), or PBS (20 μL) was intraperitoneally injected into the mice, and the treatment program was implemented once per day for 3 days. Mice in the blank group were not challenged and treated. […] Aliquots of diluted homogenized tissues were spread on LB agar, on which the bacterial burden was determined for analysis. […] Pathological changes were scored as follows: a score of 1 indicated no pathology, 2 indicated perivascular infiltrates, 3 indicated perivascular and interstitial infiltrates affecting < 20% of the section, 4 indicated perivascular and interstitial infiltrates affecting 20 to 50% of the section, and 5 indicated perivascular and interstitial infiltrates affecting > 50% of the section.
# S. typhimurium SL1344 = format: cell-based; conditions: SL1344, 18 h
# Experimental: as §1
Compound,"MIC, CaCl2 (S. aureus ATCC25923 [1]) [µg/mL]","MIC, Fetal bovine serum (S. aureus ATCC25923 [1]) [µg/mL]","MIC, NaCl (S. aureus ATCC25923 [1]) [µg/mL]","MIC, control (S. aureus ATCC25923 [1]) [µg/mL]","MIC, CaCl2 (P. aeruginosa GIM1.551 [2]) [µg/mL]","MIC, Fetal bovine serum (P. aeruginosa GIM1.551 [2]) [µg/mL]","MIC, NaCl (P. aeruginosa GIM1.551 [2]) [µg/mL]","MIC, control (P. aeruginosa GIM1.551 [2]) [µg/mL]","MIC ([3]; CICC21634, 18 h)","MIC (S. aureus ATCC25923 [4]; ATCC25923, 18 h)","MIC (P. aeruginosa GIM1.551 [5]; GIM1.551, 18 h)",MIC (S. typhimurium SL1344),other results
CC[C@H](C)[C@H](NC(=O)[C@H](CCCNC(=N)N)NC(=O)[C@H](CCC(=O)O)NC(=O)[C@@H](NC(=O)[C@H](CCCCN)NC(=O)[C@H](CCC(=O)O)NC(=O)CNC(=O)[C@H](CC(C)C)NC(=O)[C@H](CCCNC(=N)N)NC(=O)[C@H](CCCNC(=N)N)NC(=O)CNC(=O)[C@H](CCCNC(=N)N)NC(=O)[C@H](CC(=O)O)NC(=O)[C@H](CO)NC(=O)[C@H](CC(C)C)NC(=O)[C@H](Cc1ccccc1)NC(=O)[C@H](CC(=O)O)NC(=O)[C@H](CCCNC(=N)N)NC(=O)[C@H](CC(C)C)NC(=O)[C@H](CCCNC(=N)N)NC(=O)[C@H](CO)NC(=O)[C@H](CC(C)C)NC(=O)[C@H](CC(C)C)NC(=O)CNC(=O)O[C@H]1CC[C@@]2(C)C(=CC[C@H]3[C@@H]4CC[C@H]([C@H](C)CCCC(C)C)[C@@]4(C)CC[C@@H]32)C1)[C@@H](C)CC)C(=O)NCC(=O)N[C@@H](CCC(N)=O)C(=O)N[C@@H](CCCCN)C(=O)N[C@H](C(=O)N[C@@H](CCCCN)C(=O)N[C@@H](CC(=O)O)C(=O)N[C@@H](CC(C)C)C(=O)N[C@@H](CO)C(=O)N[C@@H](CCC(=O)O)C(=O)N[C@@H](CCCNC(=N)N)C(=O)N[C@@H](Cc1ccccc1)C(=O)N[C@@H](CCC(N)=O)C(=O)N[C@@H](CO)C(=O)O)[C@@H](C)CC [Chol-37(F34-R)] (Cholesteryloxycarbonyl-GLLSRLRDFLSDRGRRLGEKIERIGQKIKDLSERFQS-OH),0.0078,0.0078,0.0078,0.0078,0.5,0.5,0.5,0.5,–,–,–,–,"MIC ([3]; L. monocytogenes CICC21634, MHB, 1 × 10^6 CFU/mL, 37 °C, 18 h, OD600nm, three independent experiments performed in triplicate): 0.5** μg/mL; MIC (S. aureus ATCC25923 [4]; S. aureus ATCC25923, MHB, 1 × 10^6 CFU/mL, 37 °C, 18 h, OD600nm, three independent experiments performed in triplicate): 0.0078** μg/mL; MIC (P. aeruginosa GIM1.551 [5]; P. aeruginosa GIM1.551, MHB, 1 × 10^6 CFU/mL, 37 °C, 18 h, OD600nm, three independent experiments performed in triplicate): 0.5** μg/mL; cell survival rate (NIH 3 T3 cells): over 80%; hemolysis rate (mouse erythrocytes): less than 5%"
CC1(C)S[C@@H]2[C@H](NC(=O)[C@H](N)c3ccccc3)C(=O)N2[C@H]1C(=O)O [ampicillin sodium],–,–,–,–,–,–,–,–,–,–,–,–,wound size vs PBS group (P. aeruginosa GIM1.551 [6]): smaller wound sizes than that of the PBS group; bacterial load in the abscess (P. aeruginosa GIM1.551 [7]): reduced bacterial load in the abscess
CC1(C)S[C@@H]2[C@H](NC(=O)Cc3ccccc3)C(=O)N2[C@H]1C(=O)O [benzylpenicillin potassium],–,–,–,–,–,–,–,–,–,–,–,–,bacterial load in the abscess (S. aureus ATCC25923 [8]): reduced bacterial load in the abscess; tissue damage of liver and spleen (histopathology) (S. aureus ATCC25923 [9]): eliminated most of the damaged tissues; bacterial load in the liver and spleen (S. aureus ATCC25923 [9]; n = 5): reduced the bacterial load
GLLSRLRDFLSDRGRRLGEKIERIGQKIKDLSEFFQS [PMAP-37],0.0313,0.0313,0.0313,0.0313,2,2,2,2,4 µg/mL,0.0313 µg/mL,2 µg/mL,4 µg/mL,–
GLLSRLRDFLSDRGRRLGEKIERIGQKIKDLSERFQS [PMAP-37(F34-R)],0.0156,0.0156,0.0156,0.0156,1,1,1,1,2* μg/mL,0.0156* μg/mL,1* μg/mL,1** μg/mL,–
